As usually defined, the IC50 is the midpoint of a concentration-inhibition curve.

The source of these data is patent US8828997B2, “2,3-dihydro-1H-imidazo(1,2-a)pyrimidin-5-one derivatives, preparation thereof, and pharmaceutical use thereof” (Sanofi, priority 2009, dated 2014).

Test [1] deals with AKT protein phosphorylated on serine 473 (P-AKT-S473) in PC3 human prostate carcinoma cells. In words: pAKT expression in PC3 human prostate carcinoma cells measured by MSD Multi-spot Biomarker detection (test B). It is filed as cell-based. The conditions noted are these: MSD sandwich immunoassay, 1 to 2 h incubation, absolute IC50. The procedure: The inhibitory activity of the molecules on AKT phosphorylation is measured either by western blotting using the technique described below, or by the MSD Multi-spot Biomarker detection technique from Meso Scale Discovery also described below.
Study of pAKT Expression in PC3 Human Prostate Carcinoma Cells Measured by the MSD Multi-Spot Biomarker Detection Technique from Meso Scale Discovery (Test B):
This test is based on measuring the expression of the AKT protein phosphorylated on serine 473 (P-AKT-S473), in the PC3 human prostate carcinoma line, by means of the technique based on a sandwich immunoassay using the MSD Multi-spot Biomarker Detection kit from Meso Scale Discovery: phospho-Akt (Ser473) whole cell lysate kit (#K151CAD) or phospho-Akt (Ser473)/Total Akt whole cell lysate kit (#K151OOD). The primary antibody specific for P-AKT-S473 (Kit #K151CAD) is coated onto an electrode in each well of the 96-well plates of the MSD kit: after the addition of a protein lysate to each well, the signal is visualised by adding a secondary detection antibody labelled with an electrochemoluminescent compound. The procedure followed is that described in the kit.
On day 1, the PC3 cells are seeded into 96-well plates (TPP, #92096) at the concentration of 35 000 cells/well in 200 μl of DMEM medium (DMEM Gibco #11960-044) containing 10% of foetal calf serum (FCS Gibco, #10500-056) and 1% glutamine (L-Glu Gibco #25030-024), and incubated at 37° C., 5% CO2, overnight.
On day 2, the cells are incubated in the presence or absence of the test products for 1 to 2 h at 37° C. in the presence of 5% of CO2. The molecules, diluted in dimethyl sulphoxide (DMSO Sigma #D2650), are added from a 20-times concentrated stock solution, the final percentage of DMSO being 0.1%. The molecules are tested either at a single concentration of less than or equal to 10 μM, or at increasing concentrations in a range that can extend from less than 1 nM to 10 μM.
After this incubation, the cells are lysed for the preparation of the proteins. For this, after the culture medium has been drawn off, 50 μl of complete Tris Lysis Buffer of the MSD kit containing the protease and phosphatase inhibitor solutions are added to the wells and the cells are lysed for 1 h at 4° C. with shaking. At this stage, the plates containing the lysates can be stored at −20° C. or at −80° C.
The wells of the 96-well plates of the MSD kit are saturated for 1 h at ambient temperature with the blocking solution of the MSD kit. Four washes are carried out with 150 μl of Tris Wash Buffer of the MSD kit. The lysates previously prepared are transferred into the 96-well multi-spot plates of the MSD kit and incubated for 1 h at ambient temperature, with shaking. Four washes are carried out with 150 μl of Tris Wash Buffer of the MSD kit. 25 μl of the MSD sulfo-tag detection antibody solution are added to the wells and incubated for 1 h at ambient temperature, with shaking. Four washes are carried out with 150 μl of Tris Wash Buffer of the MSD kit. 150 μl of Read Buffer of the MSD kit are added to the wells and the plates are read immediately on the S12400 instrument from Meso Scale Discovery.
The instrument measures a signal for each well. Wells without cells and containing the lysis buffer serve to determine the background noise that will be subtracted from all the measurements (min). The wells containing cells in the absence of product and in the presence of 0.1% DMSO are considered to be the 100% signal (max). The percentage inhibition is calculated for each concentration of test product according to the following formula: (1-((test−min)/(max−min)))×100.
The activity of the product is translated to IC50, obtained from a dose-response curve of the various concentrations tested and representing the dose giving 50% specific inhibition (absolute IC50). 2 independent experiments make it possible to calculate the mean of the IC50 values.

In test [2] the test system is translocation of the LC3 protein in Hela GFP-LC3 cells. In words: Translocation of the LC3 protein in Hela human cells measured by image analysis cytometry (test C, autophagy). It is filed as cell-based. The conditions noted are these: EBSS + 10 μM hydroxychloroquine, cells with LC3 granulations, absolute IC50. The procedure:
Inhibitory activity of the molecules on autophagy is measured by means of the translocation of the LC3 protein from the cytoplasm to the autophagosomes. For this, Hela cells were transfected with a vector encoding the chimeric protein GFP-LC3. A Hela clone stably expressing the GFP-LC3 protein was selected.
Study of the Translocation of the LC3 Protein in Hela Human Cells, Measured by Image Analysis Cytometry (Test C):
On day 1, the Hela GFP-LC3 cells are seeded into 96-well plates coated with poly-D-lysine (Greiner, #655946) at the concentration of 15000 cells/well in 200 μl of DMEM medium (DMEM Gibco #11960-044) containing 10% of foetal calf serum (FCS Gibco, #10500-056) and 1% glutamine (L-Glu Gibco #25030-024), and incubated at 37° C., 5% CO2, overnight.
On day 2, the cells are washed twice with EBSS (Sigma #E3024). The cells are then incubated in EBSS, 10 μM hydroxychloroquine and test products, for 2 hours at 37° C. in the presence of 5% CO2. The molecules are diluted in dimethyl sulphoxide (DMSO Sigma #D2650), the final DMSO percentage being 0.1%. The molecules are tested at increasing concentrations in a range that can extend from 10 nM to 1 μM.
After this incubation, the cells are fixed with 4% paraformaldehyde (Sigma #HT501128 4L) for 10 min. The cells are then washed twice with PBS and the nuclei then stained with 2 μg/ml of Hoechst 33342 (Invitrogen #H3570). The 96-well plates are then read with the iCyte image analysis cytometer (Compucyte).
The activity of the product is translated to IC50, obtained from a dose-response curve of various concentrations tested and representing the dose giving 50% specific inhibition (absolute IC50). 2 independent experiments make it possible to calculate the mean of the IC50 values.

Where [3] appears, read: Homo sapiens, PC-3, P-AKT-S473, PC3 cells.

As to `CC(c1ccccc1)N1c2nc(N3CCOCC3)cc(=O)n2C[C@@]1(C)C(F)(F)F` (single isomer, unassigned) [Example 31, (2S)-2-Methyl-7-(morpholin-4-yl)-1-[(1R or 1S)-1-phenylethyl]-2-(trifluoromethyl)-2,3-dihydroimidazo[1,2-a]pyrimidin-5(1H)-one], the IC50 in test [1] (P-AKT-S473, PC3 cells) is 60 nM; in test [2] (2 hours) it was 334 nM.

For the molecule `CC(c1ccccc1)N1c2nc(N3CCOCC3)cc(=O)n2C[C@@]1(C)C(F)(F)F` (single isomer, unassigned) [Example 32, (2S)-2-Methyl-7-(morpholin-4-yl)-1-[(1R or 1S)-1-phenylethyl]-2-(trifluoromethyl)-2,3-dihydroimidazo[1,2-a]pyrimidin-5(1H)-one], the IC50 was 22 nM in test [1] (P-AKT-S473, PC3 cells) and more than 1000 nM in test [2] (2 hours).

As to `CC(c1ccccc1F)N1c2nc(N3CCOCC3)cc(=O)n2C[C@@]1(C)C(F)(F)F` (single isomer, unassigned) [Example 36, (2S)-1-[(1R or 1S)-1-(2-Fluorophenyl)ethyl]-2-methyl-7-(morpholin-4-yl)-2-(trifluoromethyl)-2,3-dihydroimidazo[1,2-a]pyrimidin-5(1H)-one], the IC50 in test [1] (P-AKT-S473, PC3 cells) is 4 nM; in test [2] (Homo sapiens, HeLa, 2 h) it was 995 nM.

Turning to `CC(c1ccccc1F)N1c2nc(N3CCOCC3)cc(=O)n2C[C@@]1(C)C(F)(F)F` (single isomer, unassigned) [Example 37, (2S)-1-[(1R or 1S)-1-(2-Fluorophenyl)ethyl]-2-methyl-7-(morpholin-4-yl)-2-(trifluoromethyl)-2,3-dihydroimidazo[1,2-a]pyrimidin-5(1H)-one], the IC50 in test [1] (P-AKT-S473, PC3 cells) turned out to be 19 nM; in test [2] (2 hours), 737 nM.

For the molecule `C[C@@]1(C(F)(F)F)Cn2c(nc(N3CCOCC3)c(F)c2=O)N1Cc1ccccc1` [Example 19, (2S)-1-Benzyl-6-fluoro-2-methyl-7-(morpholin-4-yl)-2-(trifluoromethyl)-2,3-dihydroimidazo[1,2-a]pyrimidin-5(1H)-one], the IC50 is 26 nM in test [1] (setting [3]) and 425 nM in test [2] (Homo sapiens, HeLa, 2 h).

On to `C[C@@]1(C(F)(F)F)Cn2c(nc(N3CCOCC3)cc2=O)N1Cc1csc2ccc(Cl)cc12` [Example 20, (2S)-1-[(5-Chloro-1-benzothiophen-3-yl)methyl]-2-methyl-7-(morpholin-4-yl)-2-(trifluoromethyl)-2,3-dihydroimidazo[1,2-a]pyrimidin-5(1H)-one], for which the IC50 stood at 18 nM in test [1] (setting [3]) and 703 nM in test [2] (Homo sapiens, HeLa, 2 h).

Take `C[C@@]1(C(F)(F)F)Cn2c(nc(N3CCOCC3)cc2=O)N1C(=O)c1ccccc1` [Example 21, (2S)-2-Methyl-7-(morpholin-4-yl)-1-(phenylcarbonyl)-2-(trifluoromethyl)-2,3-dihydroimidazo[1,2-a]pyrimidin-5(1H)-one]: the half-inhibitory concentration (IC50) was 7 nM in test [1] (setting [3]) and more than 1000 nM in test [2] (Homo sapiens, HeLa, 2 h).

Turning to `C[C@@]1(C(F)(F)F)Cn2c(nc(N3CCOCC3)cc2=O)N1Cc1ccc(F)c(Br)c1` [Example 24, (2S)-1-(3-Bromo-4-fluorobenzyl)-2-methyl-7-(morpholin-4-yl)-2-(trifluoromethyl)-2,3-dihydroimidazo[1,2-a]pyrimidin-5(1H)-one], the half-maximal inhibitory concentration (IC50) was 13 nM in test [1] (setting [3]) and 314 nM in test [2] (Homo sapiens, HeLa, 2 h).

For the molecule `C[C@@]1(C(F)(F)F)Cn2c(nc(N3CCOCC3)cc2=O)N1Cc1cccc(F)c1F` [Example 25, (2S)-1-(2,3-Difluorobenzyl)-2-methyl-7-(morpholin-4-yl)-2-(trifluoromethyl)-2,3-dihydroimidazo[1,2-a]pyrimidin-5(1H)-one], the IC50 worked out at 28 nM in test [1] (setting [3]) and 621 nM in test [2] (Homo sapiens, HeLa, 2 h).

On to `C[C@@]1(C(F)(F)F)Cn2c(nc(N3CCOCC3)cc2=O)N1Cc1nc2ccccc2o1` [Example 30, (2S)-1-(1,3-Benzoxazol-2-ylmethyl)-2-methyl-7-(morpholin-4-yl)-2-(trifluoromethyl)-2,3-dihydroimidazo[1,2-a]pyrimidin-5(1H)-one], for which the IC50 in test [1] (setting [3]) is 89 nM; in test [2] (Homo sapiens, HeLa, 2 h) it was more than 1000 nM.

For the molecule `C[C@@]1(C(F)(F)F)Cn2c(nc(N3CCOCC3)cc2=O)N1Cc1c[nH]c2ccccc12` [Example 33, (2S)-1-(1H-indol-3-ylmethyl)-2-methyl-7-(morpholin-4-yl)-2-(trifluoromethyl)-2,3-dihydroimidazo[1,2-a]pyrimidin-5(1H)-one], the IC50 in test [1] (setting [3]) came out at 42 nM; in test [2] (Homo sapiens, HeLa, 2 h) it was 461 nM.

Take `Cc1ccccc1C(=O)N1c2nc(N3CCOCC3)cc(=O)n2C[C@@]1(C)C(F)(F)F` [Example 35, (2S)-2-Methyl-1-[(2-methylphenyl)carbonyl]-7-(morpholin-4-yl)-2-(trifluoromethyl)-2,3-dihydroimidazo[1,2-a]pyrimidin-5(1H)-one]: the IC50 in test [1] (setting [3]) is 32 nM; in test [2] (Homo sapiens, HeLa, 2 h), more than 1000 nM.
